The subject of data set [1] is HepG2 cells. Put plainly: Lipid clearance in HepG2 cells (steatosis assay, Oil Red O). To be noted: HepG2 liver cells, 20 μM. The format is cell-based. Here is the method:
Lipid Clearance in HepG2 and T6PNE Cells (Steatosis Assay). The steatosis assay was carried out as described (Kiselyuk, et al. (2012) Chem. Biol. 19(7):806-818) with the exception of the drug concentration, which was 20 μM for N-trans-caffeoyltyramine with 0.25 mM palmitate in HepG2 cell lines, and 10 μM of either N-trans-caffeoyltyramine, N-trans-caffeoyltyramine, or pcoumaroyltyramine, with 0.25 mM palmitate in T6PNE cell lines. Steatosis was assessed using the Oil Red 0 Method for Fats kits (Poly Scientific; Warrington, PA), per manufacturer's guidelines. Briefly, frozen tissue slides or fixed cells were incubated in neat propylene glycol for 2 minutes and Oil Red 0 solution for 15 hours for slides or 1 hour for fixed cells, differentiated in 85% propylene glycol solution for 1 minute, washed twice with distilled water and stained in Hematoxylin of 10 seconds. Slides were mounted with glycerin jelly mounting medium.

The nature of data set [2]: Hepatic microsome stability assay, rat. The format is in vitro ADME. To be noted: rat microsomes. Here is the method: Hepatic Microsome Assay. Hepatic microsomes stability assays were performed in accordance with known methods (Peddibhotla, et al. (2013) ACS Med. Chem. Lett. 4:846-851). Briefly, 3 μL of 25 μM compound solution in acetonitrile were incubated with 123 μL of mouse, human or rat liver microsomes (Xenotech, Kansas City, Kans.). […] The microsomal concentrations used were 1.0 mg/mL. Compounds were incubated in microsomes for 0, 5, 15, 30 and 60 minutes. The reactions were stopped by the addition of ice cold ACN and the reaction mixtures were centrifuged at 10,000 g for 10 minutes before the supernatant was removed for analysis. A 10 μL portion of the resulting extract was injected on a Thermo HPLC system equipped with PAL CTC plate sampler (96-well plate), Dionex Ultimate 3000 binary pump (flow rate at 0.600 mL/min), Dionex Ultimate 3000 thermostatted column compartment (temperature at 40° C.), Thermo Endura Mass Spectrometer (ESI source), using a Thermo Scientific Accucore C18 (2.6 μM, 2.1×50 mm) column. A gradient was run starting at 95% H2O (0.1% formic acid) and 5% ACN (0.1% formic acid) during the first 0.5 min, then under gradient condition of 5-100% ACN (0.1% formic acid) from minute 0.5 to 3.5, finishing at 95% H2O (0.1% formic acid) and 5% ACN (0.1% formic acid) over 0.5 min, with another 1 min at 95:5 to re-equilibrate.

Regarding `O=C(/C=C/c1ccc(O)c(O)c1)NCCc1ccc(O)cc1` [N-trans-caffeoyltyramine], the “Clearing of fats (Oil Red O staining)” value in data set [1] is “capable of clearing harmful fats from the liver”. Besides, the Accumulation of fats result in data set [1] (0.25 mM palmitate) is reported as “inhibited accumulation of fats”. The “% Remaining” value is on record as 0.6% in data set [2] (1 μM) and 33.6% in data set [2] (10 μM).

Values taken from patent US12285392B2, “Method for modulating metabolism” (Brightseed, Inc., priority 2018, dated 2025).
